# Patent US20120208776A1 (priority 2002, published 2012)
# “And” between values parts separate entries of the source, which are not always exact repeats. Identical values can stand only once. Like-named read-outs stand apart in the source and are kept apart here.
# Key:
# MCF7 cells [1] = test: Cell proliferation, cell count (Coulter Counter); assay type: cell-based, human; settings: for IC50: Homo sapiens, MCF7 cells, read-out: IC50
# [2] = test system: cyclin D1 and p21 mRNA in MDA-MB-453 cells; test: RT-PCR of mRNA; assay type: cell-based, human
# [3] = Lipid analysis of rat liver; assay type: in vivo, Sprague-Dawley rats; settings: actein 35.7 mg/kg; 24 hours
# Protocol: (§1) Lipid analysis: Hepatic lipids were extracted by homogenization of the liver followed by addition of choloroform:methanol (2:1). After vortex and centrifugation for 10 min, the organic phase was collected and dried under nitrogen. The dried lipids were dissolved in 1% Triton X-100 in water and sonicated. Extracted hepatic lipids and plasma lipids were measured by cholesterol and triglyceride enzymatic assay kits from Infinity (Louisville, Colo.) according to the manufacturer's instruction. Free fatty acids were measured by Enzymatic assay using NEFA C kit from Wako Chemicals (Richmond, Va.). Tissue lipids were normalized by protein concentration.
# as §1, with “Hepatic” for “Lipid analysis: Hepatic”, “liver from the 24 h group,” for “liver”, “vortexing” for “vortex”, “Colo.),” for “Colo.)”, “instructions.” for “instruction.”
# [4] = test system: rat liver gene expression; test: AffyLimma microarray analysis of rat liver, actein; assay type: in vivo, Sprague-Dawley rats; settings: for number of genes significantly altered (B>0): actein; for Fold-change relative to control, BZRP, Microarray / Fold-change relative to control, CCND1, Microarray / Fold-change relative to control, CYP7A1, Microarray / Fold-change relative to control, HMGCR, Microarray / Fold-change relative to control, HMGCS1, Microarray / Fold-change relative to control, HSD17B7, Microarray / Fold-change relative to control, ID3, Microarray / Fold-change relative to control, NQO1, Microarray / Fold-change relative to control, S100A9, Microarray: rat liver, 35.7 mg/kg
# [5] = test system: cyclin D1 and p21 mRNA in MDA-MB-453 cells; test: RT-PCR of mRNA; assay type: cell-based, human; remark: listed apart in the source
# Protocol: MDA-MB-453 cells were treated with DMSO or actein for 3, 10, or 24 h. RNA was isolated and analyzed by RT-PCR, using primers for cyclin D1 and actin (control). The staining intensities of the visualized blots were quantified using NIH image software. The relative band intensities were determined by comparing treated samples with untreated controls. These values were then normalized (fold), using actin as an internal control.
# MDA-MB-453 cells were treated with DMSO or actein for 3, 10, or 24 h. RNA was isolated and analyzed by RT-PCR, using primers for cyclin D1 and actin (control). The staining intensities of the visualized blots were quantified using NIH image software. The relative band intensities were determined by comparing treated samples with untreated controls. These values were then normalized (fold), using β-actin as an internal control.
# [6] = test system: MCF10F normal mammary epithelial cells; test: Cell proliferation, cell count (Coulter Counter); assay type: cell-based, human; settings: 96 h
# [7] = test system: HepG2 p53 positive human liver cancer cells; test: MTT proliferation assay; assay type: cell-based
# [8] = test system: cyclin D1 mRNA in MCF7 cells; test: RT-PCR of mRNA; assay type: cell-based, human
# Protocol: FIG. 13 illustrates the effects of actein on cyclin D1 mRNA in MCF7 cells (RT-PCR). MCF7 cells were treated with DMSO or actein for 3, 10, or 24 h. RNA was isolated and analyzed by RT-PCR, using primers for cyclin D1 and actin (control). The staining intensities of the visualized blots were quantified using NIH image software. The relative band intensities were determined by comparing treated samples with untreated controls. These values were then normalized (fold), using β-actin as an internal control.
# MCF7 cells [9] = test: Cell-cycle analysis by DNA flow cytometry; assay type: cell-based, human
# Protocol: Synchrony: To synchronize the cells, 3×10^5 cells were plated onto 10 cm dishes and grown for 2 days in DMEM supplemented with 10% fetal bovine serum.
# After incubation for 1-3 days, the supernatant was collected, and the cells were trypsinized, collected, and washed with phosphate buffered saline (PBS) containing 5% FBS. Cell pellets were re-suspended in 1 ml of PBS plus 5% FBS. Thereafter, 5 ml of 70% ethanol were added drop-wise, while vortexing the tube, and the mixture was stored at 4° C. Cells were centrifuged, washed with PBS plus 5% FBS, and re-suspended in 400 μl of propidium iodide (0.1 mg/ml) (Sigma Chemical Co.). 400 μl (2 mg/ml) of RNase (Sigma Chemical Co.) were added, and the cells were incubated in the dark at room temperature for 30 min.
# Na^+-K^+-ATPase = test: Enzymatic assay of adenosine 5′-triphosphatase; assay type: biochemical; settings: 20 μM
# Protocol: Enzymatic assay of adenosine 5′-triphosphatase. The enzymatic assay of ATPase (adenosine 5′-triphosphatase, EC 3.6.1.3) followed the Sigma Prod. […] [P] was determined by the Taussky-Shorr method.
smiles,measurement,setting,value
CC(=O)O[C@@H]1C[C@@]23C[C@@]24CC[C@H](O[C@@H]2OC[C@@H](O)[C@H](O)[C@H]2O)C(C)(C)[C@@H]4CC[C@H]3[C@]2(C)C[C@@H]3O[C@]4(C[C@@H](C)[C@@H]3[C@@]12C)O[C@H](O)[C@@]1(C)O[C@@H]41 [actein],IC50,MCF7 cells [1]; 96 h,14 µg/mL
same,IC50,"MCF7 cells [1]; 96 h, value in parentheses",21 µM
same,cells alive,"MCF7 cells [1]; MCF7, 20 μg/ml, 96 h",38.0%±3.0
same,potency relative to 23-epi-26-deoxyactein or cimifugoside,MCF7 cells [1]; MCF7 growth inhibition,approximately 1.5 fold
same,potency relative to cimiracemoside A,MCF7 cells [1]; MCF7 growth inhibition,approximately 3 times
same,p21 mRNA (RT-PCR),"[2]; 3 h, 20 μg/ml",0.92 fold
same,p21 mRNA (RT-PCR),"[2]; 3 h, 40 μg/ml",1.03 fold
same,p21 mRNA (RT-PCR),"[2]; 10 h, 20 μg/ml",1.06 fold
same,p21 mRNA (RT-PCR),"[2]; 10 h, 40 μg/ml",1.19 fold
same,p21 mRNA (RT-PCR),"[2]; 24 h, 20 μg/ml",0.92 fold
same,p21 mRNA (RT-PCR),"[2]; 24 h, 40 μg/ml",1.46 fold
same,cholesterol level in liver vs controls,[3],0.6 fold
same,free fatty acid level in liver vs controls,[3],0.6 fold
same,triglyceride content of liver vs controls,[3],no change
same,number of genes significantly altered (B>0),[4]; 6 hours,0
same,number of genes significantly altered (B>0),[4]; 24 hours,109
same,"Fold-change relative to control, BZRP, Microarray",[4]; 6 h,−0.12
same,"Fold-change relative to control, CCND1, Microarray",[4]; 6 h,0.57
same,"Fold-change relative to control, CYP7A1, Microarray",[4]; 6 h,0.045
same,"Fold-change relative to control, HMGCR, Microarray",[4]; 6 h,−0.61
same,"Fold-change relative to control, HMGCS1, Microarray",[4]; 6 h,−0.66
same,"Fold-change relative to control, HSD17B7, Microarray",[4]; 6 h,−0.99
same,"Fold-change relative to control, ID3, Microarray",[4]; 6 h,0.19
same,"Fold-change relative to control, NQO1, Microarray",[4]; 6 h,−0.64
same,"Fold-change relative to control, S100A9, Microarray",[4]; 6 h,−0.64
same,"Fold-change relative to control, BZRP, Microarray",[4]; 24 h,1.51
same,"Fold-change relative to control, CCND1, Microarray",[4]; 24 h,−2.30
same,"Fold-change relative to control, CYP7A1, Microarray",[4]; 24 h,2.04
same,"Fold-change relative to control, HMGCR, Microarray",[4]; 24 h,1.12
same,"Fold-change relative to control, HMGCS1, Microarray",[4]; 24 h,1.11
same,"Fold-change relative to control, HSD17B7, Microarray",[4]; 24 h,2.11
same,"Fold-change relative to control, ID3, Microarray",[4]; 24 h,−0.58
same,"Fold-change relative to control, NQO1, Microarray",[4]; 24 h,1.45
same,"Fold-change relative to control, S100A9, Microarray",[4]; 24 h,3.01
same,cyclin D1 mRNA (RT-PCR),"[5]; 3 h, 20 μg/ml",0.88 fold
same,cyclin D1 mRNA (RT-PCR),"[5]; 3 h, 40 μg/ml",1 fold
same,cyclin D1 mRNA (RT-PCR),"[5]; 10 h, 20 μg/ml",1.18 fold
same,cyclin D1 mRNA (RT-PCR),"[5]; 10 h, 40 μg/ml",1.02 fold
same,cyclin D1 mRNA (RT-PCR),"[5]; 24 h, 20 μg/ml",0.98 fold
same,cyclin D1 mRNA (RT-PCR),"[5]; 24 h, 40 μg/ml",0.56 fold
same,IC50,"[6]; Homo sapiens, MCF-10F, MCF10F cells",42 µg/mL
same,cells alive,"[6]; MCF10F, 20 μg/ml",63.8%±1.4
same,IC50,[7],27 µg/mL and 40 µM
same,cyclin D1 mRNA (RT-PCR),"[8]; 3 h, 20 μg/ml",0.91 fold
same,cyclin D1 mRNA (RT-PCR),"[8]; 3 h, 40 μg/ml",0.94 fold
same,cyclin D1 mRNA (RT-PCR),"[8]; 10 h, 20 μg/ml",1.1 fold
same,cyclin D1 mRNA (RT-PCR),"[8]; 10 h, 40 μg/ml",0.93 fold
same,cyclin D1 mRNA (RT-PCR),"[8]; 24 h, 20 μg/ml",0.84 fold
same,cyclin D1 mRNA (RT-PCR),"[8]; 24 h, 40 μg/ml",0.66 fold
same,cells in G1,"MCF7 cells [9]; 10 μg/ml, 24 h",75%
same,cells in G1,"MCF7 cells [9]; 10 μg/ml, 48 h",77%
same,cells in G1,"MCF7 cells [9]; 20 μg/ml, 24 h",77%
same,apoptosis (sub G1 peak),"MCF7 cells [9]; 20 μg/ml, 48 h",approximately 1.4%
same,cells in G1,"MCF7 cells [9]; 20 μg/ml, 48 h",87%
same,apoptosis (sub G1 peak),"MCF7 cells [9]; 20 μg/ml, 72 h",3.6%
same,cells in G1,"MCF7 cells [9]; 30 μg/ml, 48 h",82%
same,cells in G2/M,"MCF7 cells [9]; 30 μg/ml, 48 h",12%
same,cells in G1,"MCF7 cells [9]; 40 μg/ml, 24 h",74%
same,cells in G1,"MCF7 cells [9]; 40 μg/ml, 48 h",79%
same,cells in G1,"MCF7 cells [9]; 60 μg/ml, 48 h",77%
same,cells in G2/M,"MCF7 cells [9]; 60 μg/ml, 48 h",18%
C[C@H]1O[C@@H](O[C@H]2[C@@H](O)C[C@H](O[C@H]3[C@@H](O)C[C@H](O[C@H]4CC[C@@]5(C)[C@H](CC[C@@H]6[C@@H]5CC[C@]5(C)[C@@H](C7=CC(=O)OC7)CC[C@]65O)C4)O[C@@H]3C)O[C@@H]2C)C[C@H](O)[C@@H]1O [digitoxin],percent inhibition of in vitro Na^+-K^+-ATPase activity,Na^+-K^+-ATPase,35.2%
